From patent US9233095B2, “Small molecule RNase inhibitors and methods of use” (University of Rochester, priority 2011, dated 2016)

Experiments:
S. aureus (MSSA) = assay: CLSI broth microdilution MIC; type: cell-based, Staphylococcus aureus; conditions: strain UAMS-1, the strain's MIC used for time-kill assays
Text: In some examples, compounds can be further assayed using the Mueller Hinton (MH) broth antibacterial assay as specified by the Clinical and Laboratory Standards Institute MIC broth microdilution protocol (see Methods for Dilution Antimicrobial Susceptibility Tests for Bacteria That Grow Aerobically; Approved Standard, In The Clinical and Laboratory Standards Institute (CLSI, formerly NCCLS), 7th ed., January 2006, 26 (2), M7-A7; see also Performance Standards for Antimicrobial Susceptibility Testing; Eighteenth Informational Supplement, In The Clinical and Laboratory Standards Institute (CLSI, formerly NCCLS), January 2008, 28 (1), M100-S18).
With the exception of RN4220-derivatives, in vitro activities of RNPA1000 against bacteria were determined by the broth microdilution method according to the Clinical and Laboratory Standards Institute (CLSI) guidelines using cation adjusted Mueller-Hinton broth or MH broth supplemented with 5% lysed horse blood (for testing Streptotococcus spp.). Microtiter plates containing serial dilutions of RNPA1000 (0, 4, 8, 16, 32, 64, and 128 μg/ml) were inoculated with 10^5 colony forming units (CFU)/ml and incubated for 18 hr at 37° C. […] The MIC value for each S. aureus strain was determined to be the median score of replicate measurements (n=5). Wells containing concentrations of RNPA1000≧MIC were plated for minimal bactericidal measurement. Where possible, experiments with VRSA strains were performed in a laminar flow hood to minimize potential for equipment contamination. For RN4220 cells containing plasmid vector (pCN51), RnpA overproducing plasmid (pRNPA-S) or RnpA underproducing plasmid (pRNPA-A.S.) in vitro antimicrobial activity of RNPA1000 was performed by the microdilution method as described above, except that cells were grown in Tryptic Soy Broth medium supplemented with 2.5 μM CdCl2 and 0, 1, 2, 4, 8, 16, 32, 64, or 128 μg/ml RNPA1000. Time-kill assays were also performed to monitor the antimicrobial properties of RNPA1000 for S. aureus strain UAMS-1 in the absence and presence of 0.25, 0.5, 2, and 4 times the strain's MIC for oxacillin (1 μg/ml), rifampicin (0.5 μg/ml), vancomycin (2 μg/ml), or daptomycin (1 μg/ml). The indicated amount of RNPA1000 and/or commercial antibiotic were added to mid-exponential phase (2×10^8 cfu/ml) S. aureus strain UAMS-1 cells and incubated at 37° C. Aliquots were removed at 0, 2, 4, 8, and 24 hr post-antimicrobial challenge, serial diluted, and plated to enumerate resulting cfu/ml. All time-kill assays were repeated at least 3 times.

[1] = system: biofilm-associated S. aureus strain UAMS-1; conditions: Weiss et al. 2009, cited from earlier work; for clearance of biofilm-associated S. aureus: 20× MIC over 3 days; for maximal decrease in biofilm-associated bacteria: same model and conditions
S. aureus strain Smith = assay: acute lethal model of infection; type: in vivo, CD-1 mice; conditions: 5 days
Procedure: Because RNPA1000 was not toxic during short- and only mildly toxic during extended-HepG2 exposure, it could serve as an appropriate tool to assess whether RnpA-inhibitory molecules are efficacious in a systemic mouse infection model. […] RNPA1000 was solubilized in 1:1 mixture of DMSO and PEG400; Vancomycin was prepared in water. Animals (5/dose group) were administered 16, 64, and 256 mg/kg or 0.25, 1, 4, and 16 mg/kg of RNPA1000 or Vancomycin, respectively, at 30 min post infection by subcutaneous injection (0.2 ml). The percent surviving animals receiving no treatment, a single dose of Vancomycin, or RnpA-inhibitor was recorded daily over the course of the study (5 days).
Percent survival refers to a consensus of surviving animals following 5 days post-intraperitoneal S. aureus injection and RNPA1000 administration. The number in parentheses indicates the number of times the experiment was repeated. Each member of non-treated control mice expired within 24 hr bacterial inoculation (0 mg/kg). Vancomycin served as a positive control.

Q: For CO[C@H]1/C=C/O[C@@]2(C)Oc3c(C)c(O)c4c(O)c(c(/C=N/N5CCN(C)CC5)c(O)c4c3C2=O)NC(=O)/C(C)=C\C=C\[C@H](C)[C@H](O)[C@@H](C)[C@@H](O)[C@@H](C)[C@H](OC(C)=O)[C@@H]1C [rifampicin], which “MIC of commercial antibiotic” value (S. aureus (MSSA)) is on record?
A: 0.5 µg/mL

Q: With CCCCCCCCCC(=O)N[C@@H](Cc1c[nH]c2ccccc12)C(=O)N[C@H](CC(N)=O)C(=O)N[C@@H](CC(=O)O)C(=O)N[C@@H]1C(=O)NCC(=O)N[C@@H](CCCN)C(=O)N[C@@H](CC(=O)O)C(=O)N[C@H](C)C(=O)N[C@@H](CC(=O)O)C(=O)NCC(=O)N[C@H](CO)C(=O)N[C@@H]([C@H](C)CC(=O)O)C(=O)N[C@@H](CC(=O)c2ccccc2N)C(=O)O[C@@H]1C [daptomycin] as the compound, how does the “clearance of biofilm-associated S. aureus” value [1] read?
A: none of these antibiotics cleared

Q: And the “maximal decrease in biofilm-associated bacteria” value [1]?
A: 6 log

Q: And the “MIC of commercial antibiotic” value (S. aureus (MSSA))?
A: 1 µg/mL

Q: Which results are given for CC(=O)NC[C@H]1CN(c2ccc(N3CCOCC3)c(F)c2)C(=O)O1 [linezolid]?
A: clearance of biofilm-associated S. aureus [1]: none of these antibiotics cleared; maximal decrease in biofilm-associated bacteria [1]: 5 log

Q: Which results are given for CN[C@H](CC(C)C)C(=O)N[C@H]1C(=O)N[C@@H](CC(N)=O)C(=O)N[C@H]2C(=O)N[C@H]3C(=O)N[C@H](C(=O)N[C@H](C(=O)O)c4cc(O)cc(O)c4-c4cc3ccc4O)[C@H](O)c3ccc(c(Cl)c3)Oc3cc2cc(c3O[C@@H]2O[C@H](CO)[C@@H](O)[C@H](O)[C@H]2O[C@H]2C[C@](C)(N)[C@H](O)[C@H](C)O2)Oc2ccc(cc2Cl)[C@H]1O [Vancomycin, vancomycin, reference compound]?
A: % Survival (S. aureus strain Smith; Vancomycin 0.25 mg/kg s.c.): 0%; % Survival (S. aureus strain Smith; Vancomycin 1 mg/kg s.c.): 100%; % Survival (S. aureus strain Smith; Vancomycin 4 mg/kg s.c.): 100%; % Survival (S. aureus strain Smith; Vancomycin 16 mg/kg s.c.): 100%; clearance of biofilm-associated S. aureus [1]: none of these antibiotics cleared; maximal decrease in biofilm-associated bacteria [1]: 4 log; MIC of commercial antibiotic (S. aureus (MSSA)): 2 µg/mL

Q: With Cc1onc(-c2ccccc2)c1C(=O)N[C@@H]1C(=O)N2[C@@H]1SC(C)(C)[C@@H]2C(=O)O [oxacillin] as the compound, how does the “MIC of commercial antibiotic” value (S. aureus (MSSA)) read?
A: 1 µg/mL
